According to patent US6346529B1, “Antiviral therapy using thiazine dyes” (Oklahoma Medical Research Foundation, priority 1988, dated 2002):
Like-named read-outs stand apart in the source and are kept apart here.

Assays:
Format in all cases: cell-based
HSV-2 (G strain) = test: HSV plaque reduction assay in Vero cells, HSV-2; conditions: read-out: Antiviral Effect: EC50 HSV-2
Protocol: (§1) HSV Preparation: Confluent HEp-2 cells, in a roller bottle (Falcon, 850 cm^2), were infected at an input multiplicity of 0.01 PFU per cell (to minimize production of defective viruses). During the two-hour absorption period, the cells were exposed to the virus inoculum diluted in absorption buffer (10 ml PBS containing 1% newborn calf serum and 0.1% glucose). The virus inoculum was then removed and replaced with Hanks' Minimum Essential Medium (MEM) containing 2% inactivated newborn calf serum, penicillin (100 U/ml) and streptomycin (100 μg/ml) (P and S), sodium bicarbonate (2 g/L) and HEPES (25 mM) (maintenance medium). The infected cells were incubated at 37° C. for 3 to 4 days, until the cells could be easily shaken from the plastic surface of the culture bottles. The cells were then collected by centrifugation, suspended in a small volume of spent culture fluid (5 ml per 2×10^8 cells) and sonicated 3 times for one min on ice. The disrupted cells were centrifuged (2,000 g for 15 min at 4° C. and the supernatant was diluted with an equal volume of sterile skimmed milk (as stabilizer) and aliquots were frozen at −70° C.
(§2) HSV Plaque Reduction Assay: Near confluent Vero (African Green Monkey) cells in 6-well plates were infected with 100 μl virus diluted in absorption buffer to give 100-200 plaques per well. The plates were then incubated at 37° C. for 1 hour with intermittent rocking every 15 minutes. The inoculum was aspirated and the compounds at different concentrations (dissolved in maintenance medium) were added to replicate wells. For these assays, 0.1% pooled human gamma globulin was included in the media. The plates were placed in 5% CO2-95% air incubator and the plaques were allowed to develop for 48 h prior to fixation (buffered 10% Formalin acetate), staining (0.5% crystal violet in 20% EtOH/H2O) and enumeration. The degree of inhibition (percent plaques of control) was calculated by counting the mean plaque counts for the different drug dilutions. […] For routine antiviral drug screening, we used the F strain of HSV-1 and the G strain of HSV-2 (Ejercito, et al., “Characterization of Herpes Simplex virus Strains Differing in Their Effect on Social Behavior of Infected Cells,” J. Gen. Virol. 2, 357-364 (1968)). […] Acyclovir (ACV) was used as a positive control for the studies on HSV.
(§3) Median-Effect Method: EC50 and IC50 values were obtained by analysis of the data using the median-effect equation (Chou, T., et al., “Quantitative Analysis of Dose-Effect Relationships: The Combined Effects of Multiple Drugs or Enzyme Inhibitors,” Adv. Enz. Regul. 22, 27-55 (1984).

HIV-1 (strain LAV-1) = test: Inhibition of HIV-1 replication in human PBMC (supernatant RT activity); conditions: Human immunodeficiency virus 1, PBMC
Protocol: Cells: Human peripheral blood mononuclear cells (PBMC) from healthy HIV-1 seronegative and hepatitis B virus seronegative donors were isolated by Ficoll-Hypaque discontinuous gradient centrifugation at 1,000×g for 30 minutes, washed twice in phosphate-buffered saline (pH 7.2; PBS), and pelleted at 300×g for 10 minutes. Before infection, the cells were stimulated by phytohemagglutinin (PHA) at a concentration of 16.7 μg/ml, and 4 mM sodium bicarbonate buffer.
Retrovirus: HIV-1 (strain LAV-1) was obtained from Dr. P. Feorino (Centers for Disease Control, Atlanta, Ga.). The virus was propagated in human PBMC using RPMI 1640 medium, as described previously by McDougal, et al., (“Immunoassay for the detection and quantitation of infectious human retrovirus, lymphadenopathy-associated virus (LAV),” J. Immun. Meth. 76, 171-183, 1985) without PBA or fungizone and supplemented with 7% (v/v) interleukin-2 (Advanced Biotechnologies, Silver Spring, Md.), 7 μg/ml DEAE-dextran (Pharmacia, Uppsala, Sweden), and 370 U/ml anti-human leukocyte (alpha) interferon (ICN, Lisle, Ill.). Virus obtained from cell-free culture supernatant was titrated and stored in aliquots at −70° C. until use.
Inhibition of Virus Replication in Human PBMC: Uninfected PHA-stimulated human PBMC were uniformly distributed among 25 cm^2 flasks to give a 5 ml suspension containing about 2×10^6 cells/ml. Suitable dilutions of virus were added to infect the cultures. The mean reverse transcriptase (RT) activity of the inocula was 50,000 dpm/ml corresponding to about 100 TCID50, as determined by Groopman, et al., (1987), “Characterization of Serum Neutralization Response to the Human Immunodeficiency Virus (HIV),” AIDS Res. Human Retro. 3, 71-85. The drugs, at twice their final concentrations in 5 ml of RPMI 1640 medium (supplemented as described above), were added to the cultures. Uninfected and untreated PBMC at equivalent cell densities were grown in parallel as controls. The cultures were maintained in a humidified 5% CO2-95% air incubator at 37° C. for six days after infection at which point all cultures were sampled for supernatant RT activity.
RT Activity Assay: A […] aliquot of supernatant from each culture was clarified of cells at 300×g for 10 minutes. […]
The RT assay was performed in 96-well microtiter plates, as described by Spira, et al. (1987), “Micromethod for Assaying the Reverse Transcriptase of LAV-HTLV-III/Lymphadenopathy-Associated Virus,” J. Clin. Microbiol. […] Four ml of scintillation fluid (Econofluor, NEN Research Products, Boston, Mass.) were added and the amount of radioactivity in each sample was determined using a Packard Tri-Carb liquid scintillation analyzer (model 2,000CA). […]

HSV-1 (F strain) = test: HSV plaque reduction assay in Vero cells, HSV-1; conditions: read-out: Antiviral Effect: EC50 HSV-1
Protocol: as §1, §2, §3

| EC50 (HSV-2 (G strain); Human alphaherpesvirus 2, Vero, dark) [nM] | EC50 (HSV-2 (G strain); Human alphaherpesvirus 2, Vero, light) [nM] | EC50 (HIV-1 (strain LAV-1); light, read-out: Antiviral Effect: EC50 HIV-1) [nM] | EC50 (HSV-1 (F strain); Human alphaherpesvirus 1, Vero, dark) [nM] | EC50 (HSV-1 (F strain); Human alphaherpesvirus 1, Vero, light) [nM] | SMILES | EC50 (HSV-2 (G strain); Human alphaherpesvirus 2, Vero) [nM] | EC50 (HSV-2 (G strain); dark) [nM] | EC50 (HIV-1 (strain LAV-1); read-out: Antiviral Effect: EC50 HIV-1, dark) [nM] | EC50 (HIV-1 (strain LAV-1); read-out: Antiviral Effect: EC50 HIV-1, light) [nM] | EC50 (HSV-1 (F strain); Human alphaherpesvirus 1, Vero) [nM] | EC50 (HSV-1 (F strain); dark) [nM] |
| --- | --- | --- | --- | --- | --- | --- | --- | --- | --- | --- | --- |
| 160 | 510 | > 100000 | 13 | 22 | Nc1nc2c(ncn2COCCO)c(=O)[nH]1 [ACV, Acyclovir] |  |  |  |  |  |  |
|  |  |  |  |  | CN(C)c1ccc2nc3ccc(N(C)C)cc3[s+]c2c1.[Cl-] [MB, 3,7-Bis(dimethylamino)phenothiazin-5-ium chloride] | ≥ 10000 | ≥ 10000 | 140 | 28 | ≥ 10000 | ≥ 10000 |
